Assay results as given in patent US12595483B2, “Treatment of tumors with miRNA targeting CDK4/CDK6” (Institute For Cancer Research, priority 2017, dated 2026).

Experiments:
Type in all cases: cell-based, human
p21 = test: Western blot of p21 (cell cycle arrest); settings: 50 nM mimic; 5-FU 384 μM (HT-29 and SW-480) or 25 μM (HCT-116 and RKO)
Experimental: (§1) Western blot: Western blotting was performed by routine and well known procedures. The following antibodies were used: CDK4 (Santa Cruz Biotechnology, sc-260), CDK6 (CST, D4S8S), CDK1 (Santa Cruz Biotechnology, sc-54), Cyclin-D1 (CST, 92G2), p-Rb (S795) (CST, 9301S), Total Rb, BCLxL (CST, 2764S), PARP (CST, 9542), p53-DO1 (Santa Cruz Biotechnology, sc-126), p21 (Calbiochem, OP64), and β-actin (Sigma, A5441).
(§2) A panel of CRC cell lines was reverse transfected with 25 nM (HCT-116) or 50 nM of SCR or indicated miRNA mimics. At 16 hours post-transfection, Irinotecan (see, FIG. 5A) or 5-FU (see, FIG. 5B) at indicated doses were added. Synergy of miRNA-drug was measured by cell viability 72 hours post-transfection using CellTiter-Glo assay. The effect on apoptosis and cell cycle markers with miRNA alone or combination were assessed using 50 nM of miRNA mimic and […] (HT-29 and SW-480) or 2.5 μM Irinotecan (HCT-116 and RKO) by western blot. For 5-FU, 384 μM (HT-29 and SW-480) and 25 μM (HCT-116 and RKO) were used. Representative western blots are shown in FIG. 5C and FIG. 5D, respectively.

CDK4 = CDK4 protein (western blot) and RNA (qRT-PCR) expression in CRC cell lines transfected with miRNA mimics; settings: 50 nM miRNA mimic vs scrambled duplex, 72 hours; HCT-116, RKO, HT-29, SW-480
Experimental: (§3) Transfection of miRNA mimics, siRNA and plasmid constructs: All miRNA mimics and siRNA transfections were performed by reverse transfection using Lipofectamine RNAiMAX (Life technologies, Grand Island, NY). 80 nM siRNA was used in all experiments for HT-29, RKO and SW-480 cell lines. 40 nM siRNA was used for HCT-116 cells. miRNA mimics were transfected at concentrations of either 25 nM, 50 nM, or 100 nM, as indicated in respective assays. CDK4-Luciferase vector was transfected in HCT-116 cells using Lipofectamine 3000 (Life technologies, Grand Island, NY) and stable cells were selected using G418 antibiotic (500 μg/mL).
(§4) Quantitative RT-PCR (qRT-PCR): Total RNA, which includes miRNA, was isolated using the Quick-RNA™ MiniPrep kit (Zymo Research, Irvine, CA). One μg of total RNA from each sample was subjected to cDNA synthesis using SuperScript® III Reverse Transcriptase kit (Life Technologies, Grand Island, NY), for detection of CDK4, CDK6, and housekeeping genes. […] The relative expression of the reported genes and miRNAs was determined using real-time PCR performed on Applied Biosystems 7900HT Fast Real-Time PCR system. […] Each cDNA sample was amplified using Power SYBR Green (Applied Biosystems, CA) and miRNA components were quantified using TaqMan® Universal Master Mix II, no UNG (Applied Biosystems, CA). […]

CDK6 = CDK6 protein (western blot) and RNA (qRT-PCR) expression in CRC cell lines transfected with miRNA mimics; settings: 50 nM miRNA mimic vs scrambled duplex, 72 hours; HCT-116, RKO, HT-29, SW-480
Experimental: as §3, §4

CDK4 3′UTR = test: CDK4-Luciferase (pMirtarget CDK4 3′UTR) reporter assay in stable HCT-116 cells; settings: 48 hours; for direct binding to the 3′UTR region of CDK4: pMirtarget-CDK4-Luciferase vector, HCT-116, 50 nM mimic
Experimental: as §3
Luciferase assays: CDK4-Luciferase containing stable HCT-116 cells were reverse-transfected with either scramble duplex or 50 nM miRNA mimics. Luciferase signal was detected 48 hours post-transfection and Relative Luciferase Units (RLU) were calculated by normalizing luciferase signal per μg of protein per assay well. All transfections were performed in triplicates and reported as RLU units±SEM.
Referring in particular to FIGS. 2A, 2B, and 2C, data is presented showing that miR-6883-5p and miR-149* negatively regulate expression of […] and CDK6 in CRC cell lines. Referring to FIG. 2A, CDK4 and CDK6 protein levels were detected in a panel of CRC cell lines reverse transfected with 50 nM of miRNA mimics or scrambled duplex (SCR) for 72 hours. Referring to FIG. 2B, qRT-PCR was performed for CDK4 and CDK6 in SCR or miRNA mimics transfected in CRC cell lines (50 nM, 72 hours, n=3). *, ** and *** indicate p-value relative to SCR expression. Referring to FIG. 2C, HCT-116 cells stably selected with CDK4-Luciferase construct were reverse transfected with SCR or 50 nM of the indicated miRNA mimics for 48 hours. Measured luciferase activities were normalized per μg of protein for indicated samples and reported as RLU±SEM (n=3). * indicates p-value relative SCR RLU.

phosphorylated Rb (S795) = test: Western blot of cell cycle markers; settings: 100 nM miRNA mimics, 72 hours post-transfection; all four cell lines
Experimental: as §1
(§5) Referring in particular to FIGS. 3A, 3B, 3C, 3D, and 3E, data is presented showing that restoring expression of miR-6883-5p and miR-149* results in G1-arrest and cell death in CRC cell lines. […] The effects on cell viability were measured 72 hours post-transfection using CellTiter-Glo assay. Referring to FIG. 3B, the effects of the miRNA mimics on long-term cell proliferation of CRC cell lines was assessed by colony formation assays performed in 6-well plates. […] The effects on cell cycle markers (see, FIG. 3C) and markers of apoptosis (see, FIG. 3D) were evaluated by western blot 72 hours post-transfection. […] Referring to FIG. 3E, cell cycle profiles and apoptotic cells were assessed in three CRC cell lines by reverse transfecting with SCR or 50 nM (HCT-116 and HT-29) or 100 nM (RKO) miRNA mimics. 72 hours post-transfection, cells were fixed, stained with PI, and analyzed by FACS. […]

[1] = system: panel of CRC cell lines (HCT-116, RKO, HT-29, SW-480); test: miRNA-Irinotecan synergy by cell viability (CellTiter-Glo); settings: 25 nM (HCT-116) or 50 nM mimic, Irinotecan added 16 hours post-transfection, read 72 hours; all four cell lines
Experimental: (§6) Cell Proliferation assays: Five thousand to ten thousand cells were reverse transfected with either scramble duplex or miRNA to a net concentration of 50 nM and plated in 96-well plate. Cell viability was measured 72 hours post-transfection using CellTiter-Glo® Luminescent Cell Viability Assay (Promega). Percent cell viability was calculated by normalizing the luminescence signal to scramble duplex wells. All transfections were performed in triplicates and reported as % Viability±SEM.
as §2

[2] = system: p53 mutant cell lines HT-29 and SW-480; test: miRNA-5-FU combination by cell viability (CellTiter-Glo); settings: 50 nM mimic, 5-FU added 16 hours post-transfection, read 72 hours
Experimental: as §6, §2

PARP = test: Western blot of markers of apoptosis (PARP cleavage); settings: RKO and SW-480 cells; 100 nM miRNA mimics, 72 hours
Experimental: Referring to FIG. 3A, a panel of CRC cell lines was reverse transfected with 50 nM SCR or 50 nM of indicated miRNA mimics. […] All four CRC cell lines were reverse transfected with 100 nM SCR or indicated miRNA mimics. The effects on cell cycle markers (see, FIG. 3C) and markers of apoptosis (see, FIG. 3D) were evaluated by western blot 72 hours post-transfection. Representative western blots are shown (n=3).

XIAP = test: Western blot of XIAP; settings: 100 nM miRNA mimic, 72 hours
BCLXL = test: Western blot of BCLXL; settings: 100 nM miRNA mimic, 72 hours
Experimental: as §1, §5

Compound	cell cycle arrest as seen by p21 levels, single agent (p21)	CDK4 protein and RNA level (CDK4)	CDK6 protein and RNA level (CDK6)	direct binding to the 3′UTR region of CDK4 (CDK4 3′UTR)	levels of phosphorylated Rb (S795) (phosphorylated Rb (S795))	synergy with Irinotecan (cell viability) [1]	sensitivity to 5-FU (cell viability) [2]	luciferase signal (CDK4 3′UTR; HCT-116 CDK4-Luciferase stable cells, 50 nM mimic, compared to miR-206 and miR-149*)	apoptosis (PARP-cleavage) (PARP)	XIAP level (XIAP)	BCLXL level (BCLXL)
O=c1[nH]cc(F)c(=O)[nH]1 [5-FU, 5-fluorouracil, reference compound]	caused cell cycle arrest										
hsa-miR-149-3p [miR-149*]	caused cell cycle arrest	no impact on CDK4	more potent in reducing levels of CDK6	directly bind to the 3′UTR region of CDK4	reduced levels of phosphorylated Rb (S795)	synergized with Irinotecan	increased the sensitivity of p53 mutant cell lines HT-29 and SW-480 to 5-FU				
hsa-miR-6883-5p (AGGGAGGGUGUGGUAUGGAUGU; called a modified oligonucleotide, chemistry not given here; listed as Homo sapiens) [miRNA mimic purchased from Sigma-Aldrich (HMI2616)]		targeted both CDK4 and CDK6 at both the protein and RNA level	targeted both CDK4 and CDK6 at both the protein and RNA level	directly bind to the 3′UTR region of CDK4	reduced levels of phosphorylated Rb (S795)	synergized with Irinotecan	increased the sensitivity of p53 mutant cell lines HT-29 and SW-480 to 5-FU	significantly reduced luciferase signal	most potent in inducing apoptosis	downregulated XIAP and BCLXL	downregulated XIAP and BCLXL
